Measurements taken from patent US20190367868A1, “NEURONS AND COMPOSITIONS AND METHODS FOR PRODUCING THE SAME” (President and Fellows of Harvard College, priority 2015, published 2019).
“And” between values parts separate entries of the source, which are not always exact repeats. Equal entries are not always repeated.

Key:
Assay type in all cases: cell-based, human
[1] = system: HUES8-derived cortical neurons; assay: phospho-CREB immunocytochemistry after KCl depolarization of dissociated cortical neurons
Excerpt: (§1) It is well known that synaptic activation through depolarization induces a transcriptional response in neurons (Ebert and Greenberg, 2013; Flavell et al., 2008; Hong et al., 2008; Lin et al., 2008). A key event in many types of neurons, including cortical neurons, is the phosphorylation of the transcription factor CREB. To examine whether neurons from dissociated cortical spheres responded to activation, we depolarized them with KCl.
(§2) Cell cultures were fixed in 4% paraformaldehyde (PFA) in PBS at room temperature (RT) for 20 min, then blocked for 20 min in 5% horse serum (HS) (Gibco) and 0.1% Triton X-100 (Sigma) in PBS. Cells were incubated with primary antibodies overnight at 4° C. Secondary antibodies were applied for 1 hr at room temperature. Whole spheres were cleared using the SeeDB protocol as follows: samples were fixed in 4% PFA and blocked for 24-48 hrs in 0.1% Triton X-100 and 5% HS at 4° C. Samples were then incubated with primary antibodies for 2-3 days at 4° C. in either blocking solution or 10% HS. Samples were washed with PBS 3 times and incubated with secondary antibodies for 3 days in either blocking solution or 10% HS. Following washing with PBS, samples were serially incubated in 20%, 40%, 60%, and 80% (wt/vol) fructose for 6-12 hrs at 25° C. Samples were immersed in 100% (wt/vol) fructose for 24 hrs, followed by SeeDB (115%, wt/vol) for at least 24 hrs at 25° C. All solutions were prepared with H2O and contained 0.5% α-thioglycerol. Samples were stored in SeeDB at 4° C.
The primary antibodies used in this study were raised against PAX6 (Covance), OTX1-2, Ki67, TBR1, SATB2, CTIP2, and ISL1 (Abcam), GLUR1, and ChAT (Millipore), SYNAPSINI (Synaptic System), TUJ1 (Covance), and MAP2 (Lifespan Biosciences). Secondary antibodies were AlexaFluor488, -546, -555, and -647-conjugated antibodies raised against the appropriate species (Invitrogen). Immunocytochemical images were acquired on the Opera High-Content Screening System (PerkinElmer). Immunohistochemical images and Ca^2+ imaging was acquired on the Nikon Eclipse TE2000-S microscope equipped with a heated stage and a humidified chamber with atmospheric control. 3D LSFM was performed on the ZEISS Lightsheet.Z1 Microscope Quantitative image analysis of neuronal cultures was done using PerkinElmer Columbus Image Data Storage and Analysis System v2.3.3.
[…] Neurons were silenced overnight with TTX (Natchannel-blocker) (EMD Bioscience, 1 μM) and AP-V (NMDAR antagonist) (Sigma Aldrich, 100 μM), two compounds that together inhibit any spontaneous activity in cultured neurons. […] Phospho-CREB was detected by immunostaining as described.

[2] = system: cortical neurons from dissociated cortical spheres; assay: qRT-PCR of activity-induced genes after KCl stimulation of cortical neurons; conditions: KCl-stimulated cortical neurons, by one hour after stimulation
Excerpt: as §1
Total RNA was isolated using RNeasy mini kit (QIAGEN) and subsequent cDNA synthesis with iSCRIPT (Bio-Rad). qRT-PCR was then performed using SYBER green (Bio-Rad) on a QuantStudio™ 12 K Flex Real-Time PCR System (Life Technologies). Quantitative levels for all genes were normalized to endogenous GAPDH. Expression levels of individual genes were normalized to the levels in undifferentiated human ESC/iPSC of each line. For KCL experiments, expression levels were normalized to the levels in untreated cells.
KCl experiments were performed on spheres at day 20 of differentiation and on dissociated neurons 10 days after dissociation. Neurons were silenced overnight with TTX (Natchannel-blocker) (EMD Bioscience, 1 μM) and AP-V (NMDAR antagonist) (Sigma Aldrich, 100 μM), two compounds that together inhibit any spontaneous activity in cultured neurons. […] Phospho-CREB was detected by immunostaining as described.

[3] = system: dissociated neurons from motor neuron spheres; assay: phospho-CREB immunocytochemistry after KCl depolarization of motor neurons
Description: When stimulated with sonic hedgehog and retinoic acid at the proper doses and time points, differentiating cells within the spheres adopt the motor neuron fate and can be dissociated and replated without glial feeder layers.
as §2, with “All solutions were prepared with H2O and contained 0.5% α-thioglycerol. Samples were stored in SeeDB at 4° C.” left out
KCl experiments were performed on spheres at day 20 of differentiation and on dissociated neurons 10 days after dissociation. […] Phospho-CREB was detected by immunostaining as described.

[4] = system: HUES9-derived motor neurons; assay: GCaMP6 Ca2+ imaging after GABA and AMPA application; conditions: 100 μM, motor neurons cultured for 3 weeks after sphere dissociation
Description: Patch-clamp recordings were performed to further understand the electrophysiological characteristics of motor neurons from dissociated spheres.
For Ca^2+ imaging during the GABA switchover experiment cells were transduced with AAV1.Syn.GCaMP6s.WPRE.SV40 4 days after plating. During recording, coverslips were transferred to a perfusion chamber mounted on a Nikon Eclipse TE2000 microscope. Time-lapse recordings were performed at RT at a rate of 1 frame per second. GABA and AMPA were prepared and applied for 10 seconds in the same bath solution as used for electrophysiology. Mean fluorescent intensity of GCaMP6 fluorescence was measured in soma by ImageJ (U.S. National Institutes of Health, available at the world wide web at subdomain //imagej.nih.gov/ij/) and plotted by Igor. The amplitude was normalized to baseline fluorescent level (mean of 5 frames before drug application) for each cell. Background fluorescent level was determined in a cell-free area for each recording and subtracted.

Row | SMILES | relative proportion of neurons positive for phospho-CREB, 30 min KCl ([1]; HUES8-derived cortical neurons 20 days after dissociation, KCl (60 mM) for 30 min, replicates and average of three independent experiments) | relative proportion of neurons positive for phospho-CREB, 1 hr KCl ([1]; HUES8-derived cortical neurons 20 days after dissociation, KCl (60 mM) for 1 hr, replicates and average of three independent experiments) | relative proportion of neurons positive for phospho-CREB, 6 hr KCl ([1]; HUES8-derived cortical neurons 20 days after dissociation, KCl (60 mM) for 6 hrs, replicates and average of three independent experiments) | phosphorylation of CREB after depolarization ([1]; neurons from dissociated cortical spheres depolarized with KCl) | transcription of the early-induced genes NPAS4, cFOS, and ARC [2] | phosphorylation of CREB in motor neurons after KCl depolarization [3] | intracellular Ca2+ response (GCaMP6 fluorescence) [4]
1 | [Cl-].[K+] [KCl] | 45% and 35% and 38% | 38% and 34% and 32% | 29% (2×) and 36% | robust phosphorylation of CREB | increased transcription | phosphorylation of CREB | –
2 | NCCCC(=O)O [GABA] | – | – | – | – | – | – | responded
3 | Cc1o[nH]c(=O)c1CC(N)C(=O)O (centres unmarked) [AMPA] | – | – | – | – | – | – | responded
